The results in this text go back to patent publication US12588678B2, “Oxazoline compound, synthesis method therefor and application thereof” (NANKAI UNIVERSITY, priority 2019, dated 2026).

In experiment [1] the test system is Tetranychus cinnabarinus mite larvae. Description: Larvicidal activity test, dipping method on bean seedling leaves. It is filed as in vivo. The following applies: for mortality at 1 µg/mL / mortality at 10 µg/mL / mortality at 100 µg/mL / mortality at 200 µg/mL / mortality at 0.1 µg/mL / mortality at 0.001 µg/mL / mortality at 0.01 µg/mL / mortality at 0.5 µg/mL: Tetranychus cinnabarinus, 96 h, checked after 4 days; for mortality at 1 µg/mL: read-out: mortality of mite larvae (%), 1 mg/L; for mortality at 10 µg/mL: read-out: mortality of mite larvae (%), 10 mg/L; for mortality at 100 µg/mL: read-out: mortality of mite larvae (%), 100 mg/L; for mortality at 200 µg/mL: read-out: mortality of mite larvae (%), 200 mg/L; for mortality at 0.1 µg/mL: read-out: mortality of mite larvae (%), 0.1 mg/L; for acaricidal activity compared with etoxazole: Tetranychus cinnabarinus eggs and larvae, etoxazole as reference; for mortality at 0.001 µg/mL: read-out: mortality of mite larvae (%), 0.001 mg/L; for mortality at 0.01 µg/mL: read-out: mortality of mite larvae (%), 0.01 mg/L; for mortality at 0.5 µg/mL: read-out: mortality of mite larvae (%), 0.5 mg/L. The essentials: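 Dipping method: larvae-infested bean seedling leaves were immersed 5–6 s in Tween-containing test solution, with a blank of additives only. Larvae had hatched over 5 days from eggs laid during 24 h at 25° C. Mortality % was counted 4 days later, in triplicate.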

Experiment [2] has as its system Tetranychus cinnabarinus mite eggs. Description: Activity against mite eggs, dipping method on bean seedling leaves. The following applies: Tetranychus cinnabarinus, 96 h, checked after 4 days; for mortality at 0.1 µg/mL: read-out: mortality of mite eggs (%), 0.1 mg/L; for mortality at 1 µg/mL: read-out: mortality of mite eggs (%), 1 mg/L; for mortality at 10 µg/mL: read-out: mortality of mite eggs (%), 10 mg/L; for mortality at 100 µg/mL: read-out: mortality of mite eggs (%), 100 mg/L; for mortality at 200 µg/mL: read-out: mortality of mite eggs (%), 200 mg/L; for mortality at 0.001 µg/mL: read-out: mortality of mite eggs (%), 0.001 mg/L; for mortality at 0.01 µg/mL: read-out: mortality of mite eggs (%), 0.01 mg/L; for mortality at 0.5 µg/mL: read-out: mortality of mite eggs (%), 0.5 mg/L. It is filed as in vivo. The essentials: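 Dipping method, three replicates each: leaves carrying 1-day-old mite eggs (24 h laying at 25° C.) immersed 5-6 s in compound solution or additive-only blank. Dead eggs counted 4 days later as percent of eggs treated.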

As to `Fc1cccc(F)c1C1=NC(c2ccc(COc3cccnc3)cc2)CO1` (stereo not drawn) [Compound R2-13], in experiment [1], the mortality at 1 µg/mL turned out to be 60%, the mortality at 10 µg/mL was 95%, the mortality at 100 µg/mL was found to be 100% and the mortality at 200 µg/mL is 100%. In experiment [2], the mortality at 0.1 µg/mL turned out to be 70%, the mortality at 1 µg/mL was 80%, the mortality at 10 µg/mL turned out to be 85% and the mortality at 100 µg/mL was 100%. Further, the mortality at 200 µg/mL in experiment [2] came out at 100%.
Consider `Fc1cccc(F)c1C1=NC(c2ccc(COc3ccncc3)cc2)CO1` (stereo not drawn) [Compound R2-14], for which, in experiment [1], the mortality at 100 µg/mL turned out to be 65% and the mortality at 200 µg/mL worked out at 90%. Also, in experiment [2], the mortality at 10 µg/mL was found to be 50%, the mortality at 100 µg/mL was 100% and the mortality at 200 µg/mL amounted to 100%.
Turning to `Fc1cccnc1OCc1ccc(C2COC(c3c(F)cccc3F)=N2)cc1` (stereo not drawn) [Compound R2-15], in experiment [1], the mortality at 10 µg/mL came out at 60%, the mortality at 100 µg/mL worked out at 80% and the mortality at 200 µg/mL is 100%. In experiment [2], the mortality at 10 µg/mL worked out at 70%, the mortality at 100 µg/mL stood at 100% and the mortality at 200 µg/mL amounted to 100%.
In the case of `Fc1cccc(F)c1C1=NC(c2ccc(COc3ccncn3)cc2)CO1` (stereo not drawn) [Compound R2-16], in experiment [1], the mortality at 100 µg/mL stood at 50% and the mortality at 200 µg/mL came to 88%. In experiment [2], the mortality at 10 µg/mL stood at 50%, the mortality at 100 µg/mL is 100% and the mortality at 200 µg/mL is 100%.
For the compound `Fc1cccc(F)c1C1=NC(c2ccc(COc3ncccn3)cc2)CO1` (stereo not drawn) [Compound R2-17], in experiment [1], the mortality at 100 µg/mL was 60% and the mortality at 200 µg/mL was found to be 90%. In addition, in experiment [2], the mortality at 10 µg/mL turned out to be 70%, the mortality at 100 µg/mL was determined as 100% and the mortality at 200 µg/mL was found to be 100%.
For `Fc1ccc(OCc2ccc(C3COC(c4c(F)cccc4F)=N3)cc2)cc1` (stereo not drawn) [Compound R2-18], in experiment [1], the mortality at 0.1 µg/mL amounted to 70%, the mortality at 1 µg/mL came to 80%, the mortality at 10 µg/mL was determined as 88% and the mortality at 100 µg/mL was determined as 100%. The mortality at 200 µg/mL in experiment [1] was 100%. Besides, in experiment [2], the mortality at 0.1 µg/mL worked out at 85%, the mortality at 1 µg/mL is 90%, the mortality at 10 µg/mL amounted to 96% and the mortality at 100 µg/mL was determined as 100%. Besides, the mortality at 200 µg/mL in experiment [2] was 100%.
`Fc1cccc(F)c1C1=NC(c2ccc(COc3ccc(Cl)cc3)cc2)CO1` (stereo not drawn) [Compound R2-19]: in experiment [1], the “acaricidal activity compared with etoxazole” value is reported as “higher acaricidal activity than etoxazole”, the mortality at 0.001 µg/mL was 8%, the mortality at 0.01 µg/mL is 30% and the mortality at 0.1 µg/mL turned out to be 85%. In experiment [1], the mortality at 0.5 µg/mL turned out to be 72%, the mortality at 1 µg/mL was determined as 88%, the mortality at 10 µg/mL worked out at 90% and the mortality at 100 µg/mL turned out to be 100%. Further, in experiment [1], the mortality at 200 µg/mL was found to be 100%. In addition, in experiment [2], the mortality at 0.001 µg/mL amounted to 10%, the mortality at 0.01 µg/mL was 32%, the mortality at 0.5 µg/mL was 80% and the mortality at 1 µg/mL was found to be 90%. Further, in experiment [2], the mortality at 10 µg/mL turned out to be 100%, the mortality at 100 µg/mL was 100% and the mortality at 200 µg/mL is 100%.
Consider `Fc1cccc(F)c1C1=NC(c2ccc(COc3ccc(Br)cc3)cc2)CO1` (stereo not drawn) [Compound R2-20], for which, in experiment [1], the mortality at 1 µg/mL is 40%, the mortality at 10 µg/mL was determined as 80%, the mortality at 100 µg/mL is 92% and the mortality at 200 µg/mL came out at 100%. Further, in experiment [2], the mortality at 1 µg/mL worked out at 60%, the mortality at 10 µg/mL came to 90%, the mortality at 100 µg/mL was 100% and the mortality at 200 µg/mL came to 100%.
In the case of `Cc1ccc(OCc2ccc(C3COC(c4c(F)cccc4F)=N3)cc2)cc1` (stereo not drawn) [Compound R2-22], in experiment [1], the mortality at 1 µg/mL is 55%, the mortality at 10 µg/mL was found to be 88%, the mortality at 100 µg/mL amounted to 96% and the mortality at 200 µg/mL is 100%. For the same compound, in experiment [2], the mortality at 0.1 µg/mL was found to be 80%, the mortality at 1 µg/mL worked out at 90%, the mortality at 10 µg/mL amounted to 100% and the mortality at 100 µg/mL amounted to 100%. The mortality at 200 µg/mL in experiment [2] was found to be 100%.
For the compound `Fc1cccc(F)c1C1=NC(c2ccc(COc3ccc(C(F)(F)F)cc3)cc2)CO1` (stereo not drawn) [Compound R2-23], in experiment [1], the mortality at 0.1 µg/mL came to 75%, the mortality at 1 µg/mL worked out at 80%, the mortality at 10 µg/mL is 95% and the mortality at 100 µg/mL is 100%. In addition, the mortality at 200 µg/mL in experiment [1] came to 100%. In addition, in experiment [2], the mortality at 0.1 µg/mL came to 75%, the mortality at 1 µg/mL was 85%, the mortality at 10 µg/mL came out at 90% and the mortality at 100 µg/mL is 90%. Moreover, the mortality at 200 µg/mL in experiment [2] came to 100%.
Regarding `Fc1cccc(F)c1C1=NC(c2ccc(COc3ccc4ccccc4c3)cc2)CO1` (stereo not drawn) [Compound R2-24], in experiment [1], the “acaricidal activity compared with etoxazole” value is reported as “higher acaricidal activity than etoxazole”, the mortality at 0.001 µg/mL was 20%, the mortality at 0.01 µg/mL stood at 50% and the mortality at 0.1 µg/mL came to 85%. In experiment [1], the mortality at 0.5 µg/mL is 80%, the mortality at 1 µg/mL was found to be 100%, the mortality at 10 µg/mL was determined as 100% and the mortality at 100 µg/mL was found to be 100%. In addition, in experiment [1], the mortality at 200 µg/mL came to 100%. Also, in experiment [2], the mortality at 0.001 µg/mL amounted to 28%, the mortality at 0.01 µg/mL was 50%, the mortality at 0.1 µg/mL was found to be 70% and the mortality at 0.5 µg/mL was 85%. In experiment [2], the mortality at 1 µg/mL came out at 80%, the mortality at 10 µg/mL stood at 95%, the mortality at 100 µg/mL is 100% and the mortality at 200 µg/mL came to 100%.
Take `CS(=O)(=O)Oc1ccc(C2COC(c3c(F)cccc3F)=N2)cc1` (stereo not drawn) [Compound R3-1]: in experiment [1], the mortality at 0.1 µg/mL stood at 50%, the mortality at 1 µg/mL was 80%, the mortality at 10 µg/mL is 100% and the mortality at 100 µg/mL is 100%. The mortality at 200 µg/mL in experiment [1] was 100%. For the same compound, in experiment [2], the mortality at 1 µg/mL worked out at 70%, the mortality at 10 µg/mL was 90%, the mortality at 100 µg/mL is 95% and the mortality at 200 µg/mL turned out to be 100%.
As for `CCS(=O)(=O)Oc1ccc(C2COC(c3c(F)cccc3F)=N2)cc1` (stereo not drawn) [Compound R3-2], in experiment [1], the mortality at 1 µg/mL was found to be 60%, the mortality at 10 µg/mL came out at 90%, the mortality at 100 µg/mL came to 100% and the mortality at 200 µg/mL was 100%. Further, in experiment [2], the mortality at 1 µg/mL stood at 50%, the mortality at 10 µg/mL stood at 80%, the mortality at 100 µg/mL is 95% and the mortality at 200 µg/mL was 100%.
